# Assay results: patent publication EP0341019A2, “Polyether antibiotic” (priority 1988, dated 1989)
# “And” between values parts separate entries of the source, which are not always exact repeats. Equal values may be shown once. Positions of bridges follow the written chain, without caps; N, C: chain ends. Non-standard residues stand in square brackets, D forms with d. Residues, ends and D or L forms follow the SMILES beside them. *: point of attachment. Ileψ(thiazoline)Cys = CC[C@H](C)[C@H](N)C1=N[C@H](C(=O)*)CS1; dOrn = NCCC[C@@H](N)C(=O)O
# How the values were obtained:
# [1] = system: culture A82810.1 (Actinomadura fibrosa sp. nov. NRRL 18348); assay: antibiotic sensitivity disc test on seeded ISP No. 2 agar; format: cell-based; parameters: key to Resistance to: (A82810.1): Resistance was scored as (+) when no zone of inhibition was observed; (-) when a zone of inhibition was observed; conditions: for resistance / sensitivity of culture A82810.1 to the antibiotic: cephalothin 30 µg, lincomycin 2 µg, penicillin G 10 units, rifampin 5 µg, lysozyme 50 µg/mL, bacitracin 10 units, gentamicin 10 µg, neomycin 30 µg, oleandomycin 15 µg, streptomycin 10 µg, tetracycline 30 µg, tobramycin 10 µg, vancomycin 30 µg; for Resistance to: (A82810.1): Oleandomycin 16 µg, Penicillin G 10 units
# Method: (§1) Resistance to antibiotics was measured by padding antibiotic sensitivity discs onto the surface of seeded ISP No. 2 agar plates. Resistance was scored as (+) when no zone of inhibition was observed and as (-) when a zone of inhibition was observed.
# [2] = system: Eimeria acervulina H & C and Eimeria tenella Wis; assay: anticoccidial feed test in infected chickens, ionophore-sensitive strains; format: in vivo; conditions: Table XIX, A82810 0 ppm
# [3] = system: Eimeria maxima Strain FS-410; assay: anticoccidial feed test in infected chickens, ionophore-resistant strain; format: in vivo; conditions: A82810 0 ppm
# [4] = system: Eimeria maxima Strain FS-177; assay: anticoccidial feed test in infected chickens, ionophore-sensitive strain; format: in vivo; conditions: A82810 0 ppm
# [5] = system: Eimeria acervulina Strain FS-316 And E. tenella Strain FS-456; assay: anticoccidial feed test in infected chickens, ionophore-resistant strains; format: in vivo; conditions: A82810 0 ppm
# [6] = system: Eimeria acervulina Strain 59 And E. tenella Strain 155; assay: anticoccidial feed test in infected chickens, ionophore-sensitive strains; format: in vivo; conditions: A82810 0 ppm
# [7] = system: E. acervulina Strain FS-316; assay: anticoccidial feed test in infected chickens, ionophore-resistant strain; format: in vivo; conditions: Table X, A82810 0 ppm
# E. maxima Strain LIT-626 = assay: as above; format: in vivo; conditions: Table XIII; A82810 0 ppm; Benzeneamine ppm r4-r7: 8,10,12,14
# [8] = system: Eimeria acervulina Strain FS-273 and E. tenella Strain FS-456; assay: anticoccidial feed test in infected chickens, ionophore-resistant strains; format: in vivo; conditions: Table XX, A82810 0 ppm
# A. verrucosospora = assay: antibiotic sensitivity disc test (species comparison); format: cell-based; parameters: key: Resistance was scored as (+) when no zone of inhibition was observed; (-) when a zone of inhibition was observed; conditions: Oleandomycin 16 µg; Penicillin G 10 units
# Method: as §1
# [9] = Benzeneamine ppm r4-r6: 8,12,16
# [10] = Benzeneamine ppm r10-r12: 8,12,16
molecule,measurement,setting,value
gentamicin,resistance / sensitivity of culture A82810.1 to the antibiotic,[1],sensitive
"O=[N+]([O-])c1cc([N+](=O)[O-])c(Nc2ccc(OC(F)(F)C(F)F)cc2)c(C(F)(F)F)c1 [Benzeneamine, 2,4-Dinitro-N-[4-(1,1,2,2-tetrafluoroethoxy)phenyl]-6-(trifluoromethyl)benzeneamine]",AVERAGE INTESTINAL LESION SCORES,[2]; [9],6.0 and 5.1 and 4.7
same,"WEIGHT GAIN, PERCENT OF CONTROL",[2]; [10],62% OF CONTROL and 64% OF CONTROL and 69% OF CONTROL
same,"WEIGHT GAIN, PERCENT OF CONTROL","[3]; Table XIV, Benzeneamine ppm r4-r7: 8,10,12,14",90% OF CONTROL and 88% OF CONTROL and 92% OF CONTROL
same,AVERAGE INTESTINAL LESION SCORES,"[3]; Table XIV, Benzeneamine ppm r11-r14: 8,10,12,14",3.8 and 3.7 and 3.3
same,"WEIGHT GAIN, PERCENT OF CONTROL","[3]; Table XV, Benzeneamine ppm r4-r7: 9,10,11,12",90% OF CONTROL and 94% OF CONTROL and 87% OF CONTROL and 84% OF CONTROL
same,AVERAGE INTESTINAL LESION SCORES,"[3]; Table XV, Benzeneamine ppm r11-r14: 9,10,11,12",4.0 and 3.8 and 3.7
same,"WEIGHT GAIN, PERCENT OF CONTROL","[3]; Table XVI, Benzeneamine ppm r4-r8: 16,18,20,22,24",71% OF CONTROL and 76% OF CONTROL and 81% OF CONTROL and 79% OF CONTROL and 83% OF CONTROL
same,AVERAGE INTESTINAL LESION SCORES,"[3]; Table XVI, Benzeneamine ppm r12-r16: 16,18,20,22,24",4.0 and 3.1 and 3.4 and 3.7 and 2.6
same,LESION SCORE,"[3]; Table XVII, Benzeneamine ppm r4-r6: 8,12,16",3.3 and 2.9 and 2.4
same,"WEIGHT GAIN, PERCENT OF CONTROL","[3]; Table XVII, Benzeneamine ppm r10-r12: 8,12,16",68% OF CONTROL and 59% OF CONTROL and 74% OF CONTROL
same,INTESTINAL LESION SCORE,"[3]; Table XVIII, Benzeneamine ppm r4-r6: 8,12,16",4.0 and 3.9 and 3.3
same,"WEIGHT GAIN, PERCENT OF CONTROL","[3]; Table XVIII, Benzeneamine ppm r10-r12: 8,12,16",91% OF CONTROL and 95% OF CONTROL and 93% OF CONTROL
same,INTESTINAL LESION SCORE,"[4]; Table XI, Benzeneamine ppm r4-r6: 8,12,16",3.6 and 3.9 and 3.3
same,"WEIGHT GAIN, PERCENT OF CONTROL","[4]; Table XI, Benzeneamine ppm r10-r12: 8,12,16",77% OF CONTROL and 84% OF CONTROL and 87% OF CONTROL
same,AVERAGE INTESTINAL LESION SCORES,"[4]; Table XII, Benzeneamine ppm r4-r6: 8,12,16",2.6 and 2.2 and 2.3
same,"WEIGHT GAIN, PERCENT OF CONTROL","[4]; Table XII, Benzeneamine ppm r10-r12: 8,12,16",79% OF CONTROL and 88% OF CONTROL and 102% OF CONTROL
same,"WEIGHT GAIN, PERCENT OF CONTROL","[5]; Table IX, Benzeneamine ppm r4-r8: 16,18,20,22,24",91% OF CONTROL and 84% OF CONTROL and 88% OF CONTROL and 85% OF CONTROL
same,AVERAGE CECAL LESION SCORES,"[5]; Table IX, Benzeneamine ppm r20-r24: 16,18,20,22,24",2.9 and 3.0 and 2.6 and 1.6
same,"WEIGHT GAIN, PERCENT OF CONTROL","[5]; Table VII, Benzeneamine ppm r11-r14: 4,8,12,16",90% OF CONTROL and 94% OF CONTROL and 88% OF CONTROL and 87% OF CONTROL
same,"WEIGHT GAIN, PERCENT OF CONTROL","[5]; Table VIII, Benzeneamine ppm r4-r7: 8,10,12,14",76% OF CONTROL and 77% OF CONTROL and 75% OF CONTROL and 70% OF CONTROL
same,AVERAGE INTESTINAL LESION SCORES,"[5]; Table VIII, Benzeneamine ppm r11-r14: 8,10,12,14",5.9 and 4.8 and 4.5
same,AVERAGE CECAL LESION SCORES,"[5]; Table VIII, Benzeneamine ppm r18-r21: 8,10,12,14",3.3 and 3.2 and 3.1 and 2.8
same,TOTAL LESION SCORE,"[6]; Table VI, Benzeneamine ppm r4-r7: 4,8,12,16",12.4 and 10.9 and 10.4 and 10.8
same,"WEIGHT GAIN, PERCENT OF CONTROL","[6]; Table VI, Benzeneamine ppm r11-r14: 4,8,12,16",75% OF CONTROL and 68% OF CONTROL and 73% OF CONTROL and 76% OF CONTROL
same,"WEIGHT GAIN, PERCENT OF CONTROL","[7]; Benzeneamine ppm r4-r7: 4,8,12,16",74% OF CONTROL and 71% OF CONTROL and 82% OF CONTROL and 75% OF CONTROL
same,AVERAGE INTESTINAL LESION SCORES,"[7]; Benzeneamine ppm r11-r14: 4,8,12,16",6.9 and 8.4 and 6.3 and 5.8
same,"WEIGHT GAIN, PERCENT OF CONTROL",E. maxima Strain LIT-626,94% OF CONTROL and 99% OF CONTROL and 93% OF CONTROL and 98% OF CONTROL
same,LESION SCORE,[8]; [9],9.4 and 8.4 and 8.0
same,"WEIGHT GAIN, PERCENT OF CONTROL",[8]; [10],70% OF CONTROL and 72% OF CONTROL and 74% OF CONTROL
same,PERCENT REDUCTION IN OOCYST PRODUCTION,"[8]; Benzeneamine ppm r16-r18: 8,12,16",17% and 18% and 20%
CCC[C@@H]1C[C@@H](C(=O)N[C@@H]([C@H]2O[C@H](SC)[C@H](O)[C@@H](O)[C@H]2O)[C@@H](C)O)N(C)C1 [lincomycin],resistance / sensitivity of culture A82810.1 to the antibiotic,[1],resistant
"O=[N+]([O-])c1cc([N+](=O)[O-])c(Nc2ccc(Cl)c3ccccc23)c(C(F)(F)F)c1 [4-chloro-N-[2,4-dinitro-6-(trifluoromethyl)phenyl]-1-naphthaleneamine]","WEIGHT GAIN, PERCENT OF CONTROL","[4]; Table XXIII, 4-chloro naphthaleneamine ppm r11-r14: 4,8,12,16",87% OF CONTROL and 80% OF CONTROL and 85% OF CONTROL and 84% OF CONTROL
same,"WEIGHT GAIN, PERCENT OF CONTROL","[6]; Table XXII, 4-chloro naphthaleneamine ppm r11-r14: 4,8,12,16",80% OF CONTROL and 78% OF CONTROL and 92% OF CONTROL
NC[C@H]1O[C@H](O[C@H]2[C@H](O)[C@@H](O[C@H]3O[C@H](CO)[C@@H](O)[C@H](N)[C@H]3O)[C@H](N)C[C@@H]2N)[C@H](N)C[C@@H]1O [tobramycin],resistance / sensitivity of culture A82810.1 to the antibiotic,[1],sensitive
[H]/N=C(/N)N[C@H]1[C@H](O)[C@@H](O)[C@H](O[C@@H]2O[C@@H](C)[C@](O)(C=O)[C@H]2O[C@@H]2O[C@@H](CO)[C@H](O)[C@@H](O)[C@@H]2NC)[C@@H](N/C(N)=N\[H])[C@@H]1O [streptomycin],resistance / sensitivity of culture A82810.1 to the antibiotic,[1],sensitive
CC(=O)OCC1=C(C(=O)O)N2C(=O)[C@@H](NC(=O)Cc3cccs3)[C@H]2SC1 [cephalothin],resistance / sensitivity of culture A82810.1 to the antibiotic,[1],resistant
CC[C@H](C)[C@H](N)C1=N[C@H](C(=O)N[C@@H](CC(C)C)C(=O)N[C@H](CCC(=O)O)C(=O)N[C@H](C(=O)N[C@H]2CCCCNC(=O)[C@H](CC(N)=O)NC(=O)[C@@H](CC(=O)O)NC(=O)[C@H](Cc3cnc[nH]3)NC(=O)[C@@H](Cc3ccccc3)NC(=O)[C@H]([C@@H](C)CC)NC(=O)[C@@H](CCCN)NC2=O)[C@@H](C)CC)CS1 [bacitracin] ({Ileψ(thiazoline)Cys}-L[dE]IK[dOrn]I[dF]H[dD]N; lactam 4-C),resistance / sensitivity of culture A82810.1 to the antibiotic,[1],sensitive
CC1(C)S[C@@H]2[C@H](NC(=O)Cc3ccccc3)C(=O)N2[C@H]1C(=O)O [penicillin G],Resistance to: (A82810.1),[1],+
same,resistance / sensitivity of culture A82810.1 to the antibiotic,[1],resistant
same,Resistance to: (A. verrucosospora),A. verrucosospora,-
CN[C@H](CC(C)C)C(=O)N[C@H]1C(=O)N[C@@H](CC(N)=O)C(=O)N[C@H]2C(=O)N[C@H]3C(=O)N[C@H](C(=O)N[C@H](C(=O)O)c4cc(O)cc(O)c4-c4cc3ccc4O)[C@H](O)c3ccc(c(Cl)c3)Oc3cc2cc(c3O[C@@H]2O[C@H](CO)[C@@H](O)[C@H](O)[C@H]2O[C@H]2C[C@](C)(N)[C@H](O)[C@H](C)O2)Oc2ccc(cc2Cl)[C@H]1O [vancomycin],resistance / sensitivity of culture A82810.1 to the antibiotic,[1],sensitive
CO[C@H]1C[C@H](O[C@H]2[C@H](C)[C@@H](O[C@@H]3O[C@H](C)C[C@H](N(C)C)[C@H]3O)[C@@H](C)C[C@@]3(CO3)C(=O)[C@H](C)[C@@H](O)[C@@H](C)[C@@H](C)OC(=O)[C@@H]2C)O[C@@H](C)[C@@H]1O [oleandomycin],Resistance to: (A82810.1),[1],-
same,resistance / sensitivity of culture A82810.1 to the antibiotic,[1],sensitive
same,Resistance to: (A. verrucosospora),A. verrucosospora,+
neomycin,resistance / sensitivity of culture A82810.1 to the antibiotic,[1],sensitive
CO[C@H]1/C=C/O[C@@]2(C)Oc3c(C)c(O)c4c(O)c(c(/C=N/N5CCN(C)CC5)c(O)c4c3C2=O)NC(=O)/C(C)=C\C=C\[C@H](C)[C@H](O)[C@@H](C)[C@@H](O)[C@@H](C)[C@H](OC(C)=O)[C@@H]1C [rifampin],resistance / sensitivity of culture A82810.1 to the antibiotic,[1],resistant
"O=[N+]([O-])c1cc([N+](=O)[O-])c(Nc2ccc(Br)c3ccccc23)c(C(F)(F)F)c1 [4-Bromo-N-[2,4-dinitro-6-trifluoromethyl)phenyl]-1-naphthaleneamine]","WEIGHT GAIN, PERCENT OF CONTROL","[6]; Table XXIV, 4-Bromo naphthaleneamine ppm r4-r7: 4,8,12,16",73% OF CONTROL and 66% OF CONTROL and 72% OF CONTROL and 67% OF CONTROL
same,AVERAGE INTESTINAL LESION SCORES,"[6]; Table XXIV, 4-Bromo naphthaleneamine ppm r11-r14: 4,8,12,16",6.2 and 6.9 and 6.6 and 3.8
same,AVERAGE CECAL LESION SCORES,"[6]; Table XXIV, 4-Bromo naphthaleneamine ppm r18-r21: 4,8,12,16",2.9 and 3.5 and 3.0
